The text below walks through data of ChEMBL document CHEMBL3596129, “Osthol and curcumin as inhibitors of human Pgp and multidrug efflux pumps of Staphylococcus aureus: reversing the resistance against frontline antibacterial drugs” (Medchemcomm, 2014).

Data set [1] has as its target ATP-dependent translocase ABCB1 (Homo sapiens, UniProt P08183). As to the kind of experiment: Inhibition of P-gp in human LS180 cells at 50 uM after 90 mins by rhodamine123 cell exclusion method. The format is cell-based. Conditions: ls180, 1.5 h; call rule not given here.
Data set [2] has as its system Staphylococcus aureus. As to the kind of experiment: Inhibition of TetK overexpressed in Staphylococcus aureus K2192 assessed as tetracycline MIC at 3.12 uM after 24 hrs by broth checkerboard method (reference value: 32 ug/ml).
For data set [3], the system named is Staphylococcus aureus. The experiment in a line: Inhibition of MsrA overexpressed in Staphylococcus aureus K2191 assessed as erythromycin MIC at 3.12 uM after 24 hrs by broth checkerboard method (reference value: 64 ug/ml).
The target in data set [4] is T1, Fluoroquinolone resistance protein (Staphylococcus aureus) (UniProt A0A0C5K5S3).
T1 sequence (whole entry): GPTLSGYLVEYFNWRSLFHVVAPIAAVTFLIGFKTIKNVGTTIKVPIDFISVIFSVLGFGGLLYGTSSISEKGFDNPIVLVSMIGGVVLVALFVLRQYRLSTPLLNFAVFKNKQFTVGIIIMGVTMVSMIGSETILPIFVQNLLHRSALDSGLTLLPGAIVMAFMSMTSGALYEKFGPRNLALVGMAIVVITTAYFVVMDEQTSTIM
The experiment in a line: Inhibition of MdeA overexpressed in Staphylococcus aureus Mupr-1 assessed as mupirocin MIC at 3.12 uM after 24 hrs by broth checkerboard method (reference value: 256 ug/ml).

The target of data set [5] is T2, Quinolone resistance protein NorA (Staphylococcus aureus) (UniProt P0A0J7).
T2 sequence (whole entry): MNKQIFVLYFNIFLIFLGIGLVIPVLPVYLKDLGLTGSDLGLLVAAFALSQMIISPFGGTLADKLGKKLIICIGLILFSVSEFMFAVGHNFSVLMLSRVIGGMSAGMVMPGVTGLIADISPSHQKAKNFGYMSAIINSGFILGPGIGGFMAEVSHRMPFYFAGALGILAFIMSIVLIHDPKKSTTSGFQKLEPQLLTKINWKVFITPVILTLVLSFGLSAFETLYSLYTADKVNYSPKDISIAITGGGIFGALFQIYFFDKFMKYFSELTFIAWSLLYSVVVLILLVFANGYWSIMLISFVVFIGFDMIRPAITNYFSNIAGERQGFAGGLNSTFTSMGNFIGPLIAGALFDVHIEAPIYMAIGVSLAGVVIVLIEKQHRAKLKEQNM
The experiment in a line: Inhibition of NorA overexpressed in Staphylococcus aureus SA1199B assessed as ciprofloxacin MIC at 3.12 uM after 24 hrs by broth checkerboard method (reference value: 8 ug/ml).

In data set [6] the target is T1, Fluoroquinolone resistance protein (Staphylococcus aureus). As to the kind of experiment: Inhibition of MdeA overexpressed in Staphylococcus aureus Mupr-1 assessed as decrease in mupirocin MIC at 3.12 uM after 24 hrs by broth checkerboard method relative to control.
For data set [7], the target named is T2, Quinolone resistance protein NorA (Staphylococcus aureus). As to the kind of experiment: Inhibition of NorA overexpressed in Staphylococcus aureus SA1199B assessed as decrease in ciprofloxacin MIC at 3.12 uM after 24 hrs by broth checkerboard method relative to control.
Data set [8] concerns Staphylococcus aureus. As to the kind of experiment: Inhibition of MsrA overexpressed in Staphylococcus aureus K2191 assessed as decrease in erythromycin MIC at 3.12 uM after 24 hrs by broth checkerboard method relative to control.
Data set [9] relates to Staphylococcus aureus. As to the kind of experiment: Inhibition of TetK overexpressed in Staphylococcus aureus K2192 assessed as decrease in tetracycline MIC at 3.12 uM after 24 hrs by broth checkerboard method relative to control.
Data set [10] deals with Staphylococcus aureus. As to the kind of experiment: Inhibition of TetK overexpressed in Staphylococcus aureus K2192 assessed as tetracycline MIC at 50 uM after 24 hrs by broth checkerboard method (reference value: 32 ug/ml).
The subject of data set [11] is Staphylococcus aureus. The experiment in a line: Inhibition of MsrA overexpressed in Staphylococcus aureus K2191 assessed as decrease in erythromycin MIC at 50 uM after 24 hrs by broth checkerboard method relative to control.
The target of data set [12] is T1, Fluoroquinolone resistance protein (Staphylococcus aureus). The experiment in a line: Inhibition of MdeA overexpressed in Staphylococcus aureus Mupr-1 assessed as decrease in mupirocin MIC at 50 uM after 24 hrs by broth checkerboard method relative to control.
The subject of data set [13] is Staphylococcus aureus. As to the kind of experiment: Inhibition of TetK overexpressed in Staphylococcus aureus K2192 assessed as decrease in tetracycline MIC at 50 uM after 24 hrs by broth checkerboard method relative to control.
Data set [14] has as its system Staphylococcus aureus. As to the kind of experiment: Inhibition of MsrA overexpressed in Staphylococcus aureus K2191 assessed as erythromycin MIC at 50 uM after 24 hrs by broth checkerboard method (reference value: 64 ug/ml).
In data set [15] the target is T2, Quinolone resistance protein NorA (Staphylococcus aureus). As to the kind of experiment: Inhibition of NorA overexpressed in Staphylococcus aureus SA1199B assessed as ciprofloxacin MIC at 50 uM after 24 hrs by broth checkerboard method (reference value: 8 ug/ml).
For data set [16] the target is unchanged. The experiment in a line: Inhibition of NorA overexpressed in Staphylococcus aureus SA1199B assessed as decrease in ciprofloxacin MIC at 50 uM after 24 hrs by broth checkerboard method relative to control.
The target in data set [17] is T1, Fluoroquinolone resistance protein (Staphylococcus aureus). The experiment in a line: Inhibition of MdeA overexpressed in Staphylococcus aureus Mupr-1 assessed as mupirocin MIC at 50 uM after 24 hrs by broth checkerboard method (reference value: 256 ug/ml).
The subject of data set [18] is P-gp. As to the kind of experiment: Substrate activity at P-gp in human Caco2 cells assessed as efflux ratio of apparent permeability across basolateral to apical side over apical to basolateral side at 10 uM after 90 mins by HPLC with mass spectrometric method. The format is ADME, cell-based. Conditions: Caco-2.
The test system of data set [19] is P-gp. The experiment in a line: Substrate activity at P-gp in human Caco2 cells assessed as apparent permeability across basolateral to apical side at 10 uM after 90 mins by HPLC with mass spectrometric method. The format is ADME, cell-based. Conditions: Caco-2. Background: Caco-2 monolayers are a common model of the intestinal barrier.
The next data set deals with CYP3A4 (Homo sapiens, UniProt P08684). As to the kind of experiment: Inhibition of human CYP3A4 at 10 uM preincubated for 10 mins with cofactor followed by mixture of enzyme-substrate addition by fluorescence assay relative to control. The format is ADME.
CYP3A4, sequence (P08684 whole entry): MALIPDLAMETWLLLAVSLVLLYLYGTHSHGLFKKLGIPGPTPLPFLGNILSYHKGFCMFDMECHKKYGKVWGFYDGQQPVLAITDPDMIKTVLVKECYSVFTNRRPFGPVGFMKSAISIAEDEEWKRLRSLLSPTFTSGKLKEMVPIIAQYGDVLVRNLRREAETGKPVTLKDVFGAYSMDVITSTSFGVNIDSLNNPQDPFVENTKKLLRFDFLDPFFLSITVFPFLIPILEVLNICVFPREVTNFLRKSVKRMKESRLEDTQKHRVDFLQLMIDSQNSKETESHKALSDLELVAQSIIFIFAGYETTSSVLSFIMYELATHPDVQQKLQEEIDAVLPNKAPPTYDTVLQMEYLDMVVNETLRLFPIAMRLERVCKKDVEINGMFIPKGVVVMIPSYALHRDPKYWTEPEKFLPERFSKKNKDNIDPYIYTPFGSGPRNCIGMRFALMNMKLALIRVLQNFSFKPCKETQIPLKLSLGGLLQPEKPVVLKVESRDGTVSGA

Usually efflux ratio stands for the permeability from basolateral to apical divided by that in the opposite direction, in the common usage. In general, Papp B→A refers to the apparent permeability from the basolateral to the apical side of a cell layer. By inhibition is commonly meant the percentage by which the read-out fell short of the control.

On to `CC(=O)c1c(O)c(C)c(O)c(Cc2c3c(c(O)c4c2OC(c2ccccc2)CC4=O)C=CC(C)(C)O3)c1O` (stereo not given), for which the “inhibition (INH)” value in data set [1] is given as “Not Active”. For the same compound, the MIC came to 32 µg/mL with Staphylococcus aureus [2], 64 µg/mL in the data set with Staphylococcus aureus [3], 256 µg/mL in data set [4] and 2 µg/mL in [5]. In addition, the fold change (FC) in [6] is 0; in data set [7], 4; with Staphylococcus aureus [8] it was 0; in the data set on Staphylococcus aureus [9], 0.
Regarding `CCC/C=C1\OC(=O)C2CC3CCC12C1(OC(=O)C2=C1CCCC2)C3CCC` (stereo not given), the “inhibition (INH)” value in [1] is given as “Not Active”. Besides, the MIC turned out to be 32 µg/mL with Staphylococcus aureus [10], 64 µg/mL with Staphylococcus aureus [14], 8 µg/mL in [15] and 256 µg/mL in data set [17]. The fold change (FC) (in the data set on Staphylococcus aureus [11]; in data set [12]; in the data set on Staphylococcus aureus [13]; in data set [16]) was 0 each time.
Take `C[C@H]1O[C@@H](O[C@H]2[C@@H](O)C[C@H](O[C@H]3[C@@H](O)C[C@H](O[C@H]4CC[C@@]5(C)[C@H](CC[C@@H]6[C@@H]5C[C@@H](O)[C@]5(C)[C@@H](C7=CC(=O)OC7)CC[C@]65O)C4)O[C@@H]3C)O[C@@H]2C)C[C@H](O)[C@@H]1O` [DIGOXIN]: the efflux ratio at 1.5 h, 10 µM in the data set with P-gp [18] was determined as 41.5. The Papp B→A at 1.5 h, 10 µM in the data set with P-gp [19] came out at 12.4 ×10⁻⁶ cm/s.
With `CC(=O)N1CCN(c2ccc(OCC3COC(Cn4ccnc4)(c4ccc(Cl)cc4Cl)O3)cc2)CC1` (stereo not given) [KETOCONAZOLE], the inhibition at 10 µM at CYP3A4 was found to be 95.2%.
On to `CC(C)=CCc1c(O)ccc2ccc(=O)oc12` [OSTHENOL], for which the “inhibition (INH)” value in [1] was “Not Active”. The MIC was determined as 32 µg/mL with Staphylococcus aureus [10], 64 µg/mL in the data set with Staphylococcus aureus [14], 2 µg/mL in data set [15] and 256 µg/mL in [17]. Further, the fold change (FC) came out at 0 in the data set on Staphylococcus aureus [11], 0 in data set [12], 0 in the data set on Staphylococcus aureus [13] and 4 in [16].
